One assay addresses T1, Y152A mutant 5-HT3ASR (Mus musculus, UniProt P23979, Y153A).
T1 sequence (P23979 24-483 isoform P23979-2 Y153A): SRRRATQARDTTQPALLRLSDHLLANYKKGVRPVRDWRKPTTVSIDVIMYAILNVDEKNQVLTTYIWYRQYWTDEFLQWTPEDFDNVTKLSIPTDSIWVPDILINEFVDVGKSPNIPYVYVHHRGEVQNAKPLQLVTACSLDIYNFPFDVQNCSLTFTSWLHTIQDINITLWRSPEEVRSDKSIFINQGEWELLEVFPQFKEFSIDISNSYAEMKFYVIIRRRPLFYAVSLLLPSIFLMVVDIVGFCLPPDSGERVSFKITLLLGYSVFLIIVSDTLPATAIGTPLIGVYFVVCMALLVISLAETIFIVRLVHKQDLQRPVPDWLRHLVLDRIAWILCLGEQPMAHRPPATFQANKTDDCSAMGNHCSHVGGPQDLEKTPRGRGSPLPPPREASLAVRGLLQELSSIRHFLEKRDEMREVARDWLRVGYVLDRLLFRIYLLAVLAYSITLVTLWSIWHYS
The assay is described as follows: Whole cell patch clamp, tsA201 cells transfected with Y152A cDNA. The assay is classed as cell-based. The conditions noted are these: for response amplitude: 8 s, representative trace.

The target in another assay is T2, Y140A mutant 5-HT3ASR (Mus musculus, UniProt P23979, Y141A).
T2 sequence (P23979 24-483 isoform P23979-2 Y141A): T1 sequence (P23979 24-483 isoform P23979-2 Y153A) with Y118A, A130Y
The assay is described as follows: Whole cell patch clamp, cells transfected with Y140A cDNA. The conditions noted are these: 5-HT concentrations of up to 1 mM. The assay is classed as cell-based.

For the next assay, the target named is T3, Y142A mutant 5-HT3ASR (Mus musculus, UniProt P23979, Y143A).
T3 sequence (P23979 24-483 isoform P23979-2 Y143A): T1 sequence (P23979 24-483 isoform P23979-2 Y153A) with Y120A, A130Y
The assay is described as follows: Whole cell patch clamp, cells transfected with Y142A cDNA. The settings on record: 5-HT concentrations of up to 1 mM. The assay is classed as cell-based.

A further assay deals with T4, wt 5-HT3ASR (Mus musculus, UniProt P23979).
T4 sequence (P23979 24-483 isoform P23979-2 limits assumed): T1 sequence (P23979 24-483 isoform P23979-2 Y153A) with A130Y
The settings on record: for response amplitude: 4 s, representative trace.

Changes are numbered by the printed parent chain. Read-outs that look alike come from different tables or passages of the source.

As for `NCCc1c[nH]c2ccc(O)cc12` [5-HT, serotonin], at Y152A mutant 5-HT3ASR, the “time for response to plateau” value is on record as “several seconds”. Moreover, the response amplitude on Y152A mutant 5-HT3ASR (3.0 μM 5-HT) amounted to 0.10 nA; at Y152A mutant 5-HT3ASR (100 μM 5-HT), 0.14 nA; at Y152A mutant 5-HT3ASR (300.0 μM 5-HT), 0.57 nA; on Y152A mutant 5-HT3ASR (1.0 mM 5-HT) it was 1.0 nA; on wt 5-HT3ASR (0.3 μM 5-HT), 0.03 nA; on wt 5-HT3ASR (1.0 μM 5-HT), 0.96 nA. Moreover, the response amplitude amounted to 2.5 nA on wt 5-HT3ASR (3.0 μM 5-HT), 4.4 nA on wt 5-HT3ASR (30.0 μM 5-HT) and 3.9 nA on wt 5-HT3ASR (100.0 μM 5-HT). Further, the desensitization result on Y152A mutant 5-HT3ASR (during the 8 s perfusion time) was “no desensitization”; at wt 5-HT3ASR, “desensitized rapidly”. Further, the “whole cell response to 5-HT” value at Y140A mutant 5-HT3ASR and on Y142A mutant 5-HT3ASR was “no responses” in each case. The “time to peak response” value on wt 5-HT3ASR was “less than 80 ms”.

Values taken from article PMC117120 (BMC Biochemistry, 2002).
